≈ marks a conversion by molar mass, not a printed value. Numbered stars: 1 amine (or outer) side, 2 acyl side, 3 side chain; on linkers, the order of the positions; unused ones are H or OH. Square brackets hold non-standard residues; d marks the D form. Peptide text beside a SMILES is read from it. * marks the point of attachment. X13 = O=C([C@H](Cc1nc2ccc(F)cc2s1)N[*:1])[*:2]; X14 = COc1ccc(C[C@H](N[*:1])C(=O)[*:2])cc1Cl; Ala(thiazol-2-yl) = N[C@@H](Cc1nccs1)C(=O)O; NH(1-CH2NMe2-cBu) = CN(C)CC1(N*)CCC1; Gly(octyl) = CCCCCCCC[C@H](N)C(=O)O; Oxazole4CO(2-Me) = Cc1nc(C(=O)*)co1; Benzoyl(4-F) = O=C(c1ccc(F)cc1)*; NHCH2CH2NHMe = CNCCN*; Aib = CC(C)(N)C(=O)O; βAla = NCCC(=O)O
Assays:
[1] = system: Staphylococcus aureus ATCC 43300, MRSA; type: cell-based; conditions: ATCC 43300, 18 h
Description: The antibacterial activity of inventive compounds was evaluated in duplicate in a further Minimum Inhibitory Concentration (MIC) assay.
Bacteria were cultured in Cation-adjusted Mueller Hinton broth (CAMHB) at 37° C. overnight. A sample of each culture was then diluted 40-fold in fresh broth and incubated at 37° C. for 1.5-3 h. The resultant mid-log phase cultures were diluted (CFU/mL measured by OD600), then added to each well of the compound containing plates, giving a cell density of 5×10^5 CFU/mL and a total volume of 50 μL. All the plates were covered and incubated at 37° C. for 18 h without shaking.
Samples were prepared in DMSO and serially diluted 2 fold 8 times. Each sample concentration was prepared in 384-well plates, non-binding surface plate (NBS; Corning 3640) for the bacterial strain ATCC 43300, MRSA. The final DMSO concentration was at a maximum of 0.5%.
Inhibition of bacterial growth was determined measuring absorbance at 600 nm (OD600), using a Tecan M1000 Pro monochromator plate reader. The percentage of growth inhibition was calculated for each well, using the negative control (media only) and positive control (bacteria without inhibitors) on the same plate as references. […] Vancomycin was used as positive bacterial inhibitor standards.

[2] = system: Staphylococcus aureus ATCC BAA-1556, USA300 MRSA; assay: microbe, parasite or virus in culture; type: cell-based; conditions: ATCC BAA-1556
Description: Pre-formulated compound solution was diluted in 100% DMSO to prepare a 1.6 mg/mL working stock solution. […] The concentration range was 0.032 to 32 μg/mL.

[3] = Cytotoxicity assay (Alamar Blue) on L6-cells; type: cell-based, rat; conditions: rat
Description: Tests were done in triplicate.
The plates were incubated for additional 2 h.

[4] = system: axenic Leishmania donovani MHOM-ET-67/L82 amastigotes; assay: In vitro antiprotozoal assay, axenic amastigotes; type: cell-based; conditions: axenic amastigotes; read-out: L.don.ax. IC50
Description: (§1) The testing of the inventive compounds against Leishmania donovani (strain MHOM/ET/67/L82) was performed in 96 well plates at concentrations in serial dilutions. Tests were done in triplicate.

[5] = system: intracellular Leishmania donovani MHOM-ET-67/L82 amastigotes; assay: In vitro antiprotozoal assay, intracellular amastigotes; type: cell-based; conditions: intracellular amastigotes; read-out: L.don.InMac IC50
Description: as §1

MIC [1] [µg/mL] | MIC [2] [µg/mL] | Structure (SMILES) | IC50 at 68 h [3] [nM] | IC50 [4] [nM] | IC50 [5] [nM]
4 (≈ 3.24 µM) |  | CC(C)C[C@H](NC(=O)[C@H](Cc1nc2ccc(F)cc2s1)NC(=O)[C@@H]1CCCN1C(=O)c1ccc(F)cc1)C(=O)NC(C)(C)C(=O)N[C@@H](CC(C)C)C(=O)N[C@@H](CC(C)C)C(=O)NC(C)(C)C(=O)NC(C)(C)C(=O)NCCC(=O)NC1(CN(C)C)CCC1 [Compound 7848, (2S)-N-(1-{[(1S)-1-{[(1S)-1-({1-[(1-{[2-({1-[(dimethylamino)methyl]cyclobutyl}carbamoyl)ethyl]carbamoyl}-1-methylethyl)carbamoyl]-1-methylethyl}carbamoyl)-3-methylbutyl]carbamoyl}-3-methylbutyl]carbamoyl}-1-methylethyl)-2-[(2S)-3-(6-fluoro-1,3-benzothiazol-2-yl)-2-{[(2S)-1-(4-fluorobenzoyl)pyrrolidin-2-yl]formamido}propanamido]-4-methylpentanamide] ({Benzoyl(4-F)}-P[X13]L[Aib]LL[Aib][Aib][βAla]-{NH(1-CH2NMe2-cBu)}) |  |  | 
4 (≈ 3.27 µM) |  | COc1ccc(C[C@H](NC(=O)[C@@H]2CCCN2C(=O)c2ccc(F)cc2)C(=O)N[C@@H](CC(C)C)C(=O)NC(C)(C)C(=O)N[C@@H](CC(C)C)C(=O)N[C@@H](CC(C)C)C(=O)NC(C)(C)C(=O)NC(C)(C)C(=O)NCCC(=O)NC2(CN(C)C)CCC2)cc1Cl [Compound 7846, (2S)-2-[(2S)-3-(3-chloro-4-methoxyphenyl)-2-{[(2S)-1-(4-fluorobenzoyl)pyrrolidin-2-yl]formamido}propanamido]-N-(1-{[(1S)-1-{[(1S)-1-({1-[(1-{[2-({1-[(dimethylamino)methyl]cyclobutyl}carbamoyl)ethyl]carbamoyl}-1-methylethyl)carbamoyl]-1-methylethyl}carbamoyl)-3-methylbutyl]carbamoyl}-3-methylbutyl]carbamoyl}-1-methylethyl)-4-methylpentanamide] ({Benzoyl(4-F)}-P[X14]L[Aib]LL[Aib][Aib][βAla]-{NH(1-CH2NMe2-cBu)}) |  |  | 
8 (≈ 7.28 µM) | 16 (≈ 14.6 µM) | Cc1nc(C(=O)N2CCCC2C(=O)N[C@@H](CCC2CCCCC2)C(=O)N[C@@H](CC(C)C)C(=O)NC(C)(C)C(=O)N[C@@H](CC(C)C)C(=O)N[C@@H](CC(C)C)C(=O)NC(C)(C)C(=O)NC(C)(C)C(=O)NCCC(=O)NCCN)co1 (stereo in doubt) [Compound 7192, (2S)-N-(1-{[(1S)-1-{[(1S)-1-[(1-{[1-({2-[(2-aminoethyl)carbamoyl]ethyl}carbamoyl)-1-methylethyl]carbamoyl}-1-methylethyl)carbamoyl]-3-methylbutyl]carbamoyl}-3-methylbutyl]carbamoyl}-1-methylethyl)-2-[(2S)-4-cyclohexyl-2-{[(2S)-1-(2-methyl-1,3-oxazole-4-carbonyl)pyrrolidin-2-yl]formamido}butanamido]-4-methylpentanamide] |  |  | 
32 (≈ 27.4 µM) |  | CC(C)C[C@H](NC(=O)[C@H](Cc1nccs1)NC(=O)[C@@H]1CCCN1C(=O)c1ccc(F)cc1)C(=O)NC(C)(C)C(=O)N[C@@H](CC(C)C)C(=O)N[C@@H](CC(C)C)C(=O)NC(C)(C)C(=O)NC(C)(C)C(=O)NCCC(=O)NC1(CN(C)C)CCC1 [Compound 7842, (2S)-N-(1-{[(1S)-1-{[(1S)-1-({1-[(1-{[2-({1-[(dimethylamino)methyl]cyclobutyl}carbamoyl)ethyl]carbamoyl}-1-methylethyl)carbamoyl]-1-methylethyl}carbamoyl)-3-methylbutyl]carbamoyl}-3-methylbutyl]carbamoyl}-1-methylethyl)-2-[(2S)-2-{[(2S)-1-(4-fluorobenzoyl)pyrrolidin-2-yl]formamido}-3-(1,3-thiazol-2-yl)propanamido]-4-methylpentanamide] ({Benzoyl(4-F)}-P[Ala(thiazol-2-yl)]L[Aib]LL[Aib][Aib][βAla]-{NH(1-CH2NMe2-cBu)}) |  |  | 
 | 4 (≈ 3.59 µM) | CCCCCCCC[C@H](NC(=O)[C@@H]1CCCN1C(=O)c1coc(C)n1)C(=O)N[C@@H](CC(C)C)C(=O)NC(C)(C)C(=O)N[C@@H](CC(C)C)C(=O)N[C@@H](CC(C)C)C(=O)NC(C)(C)C(=O)NC(C)(C)C(=O)NCCC(=O)NCCNC [Compound 7058, (2S)-2-{[(2S)-1-(2-methyl-1,3-oxazole-4-carbonyl)pyrrolidin-2-yl]formamido}-N-[(1S)-3-methyl-1-[(1-methyl-1-{[(1S)-3-methyl-1-{[(1S)-3-methyl-1-{[1-methyl-1-({1-methyl-1-[(2-{[2-(methylamino)ethyl]carbamoyl}ethyl)carbamoyl]ethyl}carbamoyl)ethyl]carbamoyl}butyl]carbamoyl}butyl]carbamoyl}ethyl)carbamoyl]butyl]decanamide] ({Oxazole4CO(2-Me)}-P[Gly(octyl)]L[Aib]LL[Aib][Aib][βAla]-NHCH2CH2NHMe) | 5040 | 23.8 | 2620

Structure (SMILES) | MIC [1] [µg/mL] | MIC [2] [µg/mL] | IC50 at 68 h [3] [nM] | IC50 [4] [nM] | IC50 [5] [nM]
Cc1nc(C(=O)N2CCC[C@H]2C(=O)N[C@@H](CC2CCCCC2)C(=O)N[C@@H](CC(C)C)C(=O)NC(C)(C)C(=O)N[C@@H](CC(C)C)C(=O)N[C@@H](CC(C)C)C(=O)NC(C)(C)C(=O)NC(C)(C)C(=O)NCCC(=O)NC2(CN(C)C)CCC2)co1 [Compound 7059, (2S)-2-[(2S)-3-cyclohexyl-2-{[(2S)-1-(2-methyl-1,3-oxazole-4-carbonyl)pyrrolidin-2-yl]formamido}propanamido]-N-(1-{[(1S)-1-{[(1S)-1-({1-[(1-{[2-({1-[(dimethylamino)methyl]cyclobutyl}carbamoyl)ethyl]carbamoyl}-1-methylethyl)carbamoyl]-1-methylethyl}carbamoyl)-3-methylbutyl]carbamoyl}-3-methylbutyl]carbamoyl}-1-methylethyl)-4-methylpentanamide] (HELM PEPTIDE1{[Cc1nc(C(=O)[*:2])co1].P.[Cha].L.[Aib].L.L.[Aib].[Aib].[bAla].[CN(C)CC1(N[*:1])CCC1]}$$$$V2.0) | 32 (≈ 27.7 µM) | 4 (≈ 3.47 µM) | 6850 | 1.3 | 
Cc1nc(C(=O)N2CCC[C@H]2C(=O)N[C@@H](Cc2c[nH]c3ccccc23)C(=O)N[C@@H](CC(C)C)C(=O)NC(C)(C)C(=O)N[C@@H](CC(C)C)C(=O)N[C@@H](CC(C)C)C(=O)NC(C)(C)C(=O)NC(C)(C)C(=O)NCCC(=O)NC2(CN(C)C)CCC2)co1 [Compound 6779, (2S)-N-(1-{[(1S)-1-{[(1S)-1-({1-[(1-{[2-({1-[(dimethylamino)methyl]cyclobutyl}carbamoyl)ethyl]carbamoyl}-1-methylethyl)carbamoyl]-1-methylethyl}carbamoyl)-3-methylbutyl]carbamoyl}-3-methylbutyl]carbamoyl}-1-methylethyl)-2-[(2S)-3-(1H-indol-3-yl)-2-{[(2S)-1-(2-methyl-1,3-oxazole-4-carbonyl)pyrrolidin-2-yl]formamido}propanamido]-4-methylpentanamide] (HELM PEPTIDE1{[Cc1nc(C(=O)[*:2])co1].P.W.L.[Aib].L.L.[Aib].[Aib].[bAla].[CN(C)CC1(N[*:1])CCC1]}$$$$V2.0) | 8 (≈ 6.74 µM) |  | 6680 | 27 | 203

Reference: patent US20240174714A1, “TREATMENT OF SKIN DISORDERS” (priority 2021, published 2024)
